# Results taken from ChEMBL document CHEMBL3351422, “Discovery of N-substituted 7-azaindoline derivatives as potent, orally available M1 and M4 muscarinic acetylcholine receptors selective agonists” (Bioorg Med Chem Lett, 2014).
# How the values were obtained:
# [1] = species: Rattus norvegicus; test: Inhibition of rat Rolipram binding site at 3 uM by radioligand binding assay
# [2] = biological target: Acetylcholinesterase (Homo sapiens) (UniProt P22303); test: Inhibition of human acetylcholinesterase at 3 uM by radioligand binding assay
# Chain of Acetylcholinesterase (Homo sapiens) (P22303 whole entry): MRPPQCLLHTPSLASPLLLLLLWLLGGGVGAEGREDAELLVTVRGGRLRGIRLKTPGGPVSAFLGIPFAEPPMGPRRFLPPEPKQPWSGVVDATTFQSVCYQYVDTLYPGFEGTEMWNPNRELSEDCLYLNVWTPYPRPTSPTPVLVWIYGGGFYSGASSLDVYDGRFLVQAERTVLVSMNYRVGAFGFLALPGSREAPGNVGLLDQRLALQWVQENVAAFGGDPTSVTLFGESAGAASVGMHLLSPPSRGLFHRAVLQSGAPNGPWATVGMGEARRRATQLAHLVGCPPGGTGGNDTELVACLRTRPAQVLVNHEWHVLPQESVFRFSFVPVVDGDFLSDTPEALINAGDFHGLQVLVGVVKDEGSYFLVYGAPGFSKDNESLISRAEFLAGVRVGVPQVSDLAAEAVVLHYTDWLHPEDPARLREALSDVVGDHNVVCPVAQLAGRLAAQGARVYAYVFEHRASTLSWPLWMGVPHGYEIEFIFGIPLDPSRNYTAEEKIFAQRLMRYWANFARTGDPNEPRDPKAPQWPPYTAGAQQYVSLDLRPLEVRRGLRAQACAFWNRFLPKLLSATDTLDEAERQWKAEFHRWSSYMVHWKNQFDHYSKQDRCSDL
# [3] = biological target: Sigma non-opioid intracellular receptor 1 (Homo sapiens) (UniProt Q99720); test: Inhibition of human sigma1 receptor at 3 uM by radioligand binding assay
# Chain of Sigma non-opioid intracellular receptor 1 (Homo sapiens) (Q99720 whole entry): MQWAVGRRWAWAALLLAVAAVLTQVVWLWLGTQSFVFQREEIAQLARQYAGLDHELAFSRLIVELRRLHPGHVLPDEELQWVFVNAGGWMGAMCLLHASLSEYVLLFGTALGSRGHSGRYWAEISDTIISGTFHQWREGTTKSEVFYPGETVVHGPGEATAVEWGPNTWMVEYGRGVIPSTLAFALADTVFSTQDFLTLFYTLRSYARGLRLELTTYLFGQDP
# [4] = biological target: Muscarinic acetylcholine receptor M3 (Homo sapiens) (UniProt P20309); test: Agonist activity at muscarinic M3 receptor (unknown origin) at 0.3 uM by calcium mobilization assay; type: functional
# Chain of Muscarinic acetylcholine receptor M3 (Homo sapiens) (P20309 whole entry, looked up): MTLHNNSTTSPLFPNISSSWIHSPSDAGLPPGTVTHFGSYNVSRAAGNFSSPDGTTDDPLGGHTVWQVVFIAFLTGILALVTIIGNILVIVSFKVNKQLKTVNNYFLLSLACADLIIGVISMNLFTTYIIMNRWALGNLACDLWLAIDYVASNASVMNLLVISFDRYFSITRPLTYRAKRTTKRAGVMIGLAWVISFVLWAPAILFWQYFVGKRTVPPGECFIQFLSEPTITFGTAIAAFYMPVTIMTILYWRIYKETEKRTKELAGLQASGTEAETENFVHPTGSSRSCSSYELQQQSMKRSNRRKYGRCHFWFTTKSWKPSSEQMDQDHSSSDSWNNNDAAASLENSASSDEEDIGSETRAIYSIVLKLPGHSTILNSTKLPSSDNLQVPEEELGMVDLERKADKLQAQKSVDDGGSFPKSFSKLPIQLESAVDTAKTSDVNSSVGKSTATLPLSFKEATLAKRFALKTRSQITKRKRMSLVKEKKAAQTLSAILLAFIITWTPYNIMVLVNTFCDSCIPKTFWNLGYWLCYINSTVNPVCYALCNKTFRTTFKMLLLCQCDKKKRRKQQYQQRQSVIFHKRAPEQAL
# [5] = Clearance in monkey at 0.25 mg/kg, iv and 2.5 mg/kg, po; type: ADME, organism-based, Macaca mulatta; details: rhesus monkey, in vivo
# [6] = biological target: T1, Muscarinic acetylcholine receptor M5 (Homo sapiens) (UniProt P08912); test: Intrinsic activity at muscarinic M5 receptor (unknown origin) at 10 uM by calcium mobilization assay; type: functional
# T1 sequence (whole entry): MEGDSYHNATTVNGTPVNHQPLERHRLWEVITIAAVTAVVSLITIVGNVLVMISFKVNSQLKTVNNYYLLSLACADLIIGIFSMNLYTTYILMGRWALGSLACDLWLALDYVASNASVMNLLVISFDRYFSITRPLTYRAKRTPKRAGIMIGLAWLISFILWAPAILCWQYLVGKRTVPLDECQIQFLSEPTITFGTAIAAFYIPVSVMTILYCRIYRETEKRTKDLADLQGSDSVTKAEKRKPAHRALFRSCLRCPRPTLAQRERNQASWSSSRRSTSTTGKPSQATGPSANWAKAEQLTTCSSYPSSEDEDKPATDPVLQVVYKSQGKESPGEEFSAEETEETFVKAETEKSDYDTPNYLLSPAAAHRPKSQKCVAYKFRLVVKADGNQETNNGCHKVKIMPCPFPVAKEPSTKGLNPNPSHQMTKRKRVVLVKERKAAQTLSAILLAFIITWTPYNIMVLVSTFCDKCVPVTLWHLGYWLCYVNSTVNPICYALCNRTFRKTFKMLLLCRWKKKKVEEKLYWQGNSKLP
# [7] = biological target: Endothelin-1 receptor (Homo sapiens) (UniProt P25101); test: Inhibition of human ETA receptor at 3 uM by radioligand binding assay
# Chain of Endothelin-1 receptor (Homo sapiens) (P25101 whole entry): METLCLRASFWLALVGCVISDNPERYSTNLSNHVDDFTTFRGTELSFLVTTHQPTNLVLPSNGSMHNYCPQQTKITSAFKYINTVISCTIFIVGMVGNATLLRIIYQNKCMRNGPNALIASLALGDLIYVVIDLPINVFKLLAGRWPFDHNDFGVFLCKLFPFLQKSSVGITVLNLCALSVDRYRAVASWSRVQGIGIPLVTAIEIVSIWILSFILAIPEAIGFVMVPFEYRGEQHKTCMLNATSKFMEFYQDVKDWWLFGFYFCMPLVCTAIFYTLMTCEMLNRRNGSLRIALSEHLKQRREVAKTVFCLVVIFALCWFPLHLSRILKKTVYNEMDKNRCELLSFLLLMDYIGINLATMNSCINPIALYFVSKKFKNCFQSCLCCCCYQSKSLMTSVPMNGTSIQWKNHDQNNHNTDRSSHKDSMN
# [8] = biological target: Glutamate NMDA receptor (Rattus norvegicus) (UniProt P35439+Q00959+Q00960+Q00961+Q62645+Q8VHN2+Q9R1M7); test: Inhibition of rat NMDA receptor phencyclidine binding site at 3 uM by radioligand binding assay; type: protein-complex assay
# [9] = biological target: Adrenergic receptor alpha-1 (Rattus norvegicus) (UniProt P15823+P23944+P43140); test: Inhibition of rat alpha1 adrenergic receptor at 3 uM by radioligand binding assay
# [10] = biological target: Muscarinic acetylcholine receptor M3 (Homo sapiens) (UniProt P20309); test: Intrinsic activity at muscarinic M3 receptor (unknown origin) at 10 uM by calcium mobilization assay; type: functional
# [11] = Lipophilicity, log P of the compound; type: physicochemical; details: octanol/water
# [12] = biological target: 5-hydroxytryptamine receptor 3A (Homo sapiens) (UniProt P46098); test: Inhibition of human 5-HT3 receptor at 3 uM by radioligand binding assay
# Chain of 5-hydroxytryptamine receptor 3A (Homo sapiens) (P46098 whole entry): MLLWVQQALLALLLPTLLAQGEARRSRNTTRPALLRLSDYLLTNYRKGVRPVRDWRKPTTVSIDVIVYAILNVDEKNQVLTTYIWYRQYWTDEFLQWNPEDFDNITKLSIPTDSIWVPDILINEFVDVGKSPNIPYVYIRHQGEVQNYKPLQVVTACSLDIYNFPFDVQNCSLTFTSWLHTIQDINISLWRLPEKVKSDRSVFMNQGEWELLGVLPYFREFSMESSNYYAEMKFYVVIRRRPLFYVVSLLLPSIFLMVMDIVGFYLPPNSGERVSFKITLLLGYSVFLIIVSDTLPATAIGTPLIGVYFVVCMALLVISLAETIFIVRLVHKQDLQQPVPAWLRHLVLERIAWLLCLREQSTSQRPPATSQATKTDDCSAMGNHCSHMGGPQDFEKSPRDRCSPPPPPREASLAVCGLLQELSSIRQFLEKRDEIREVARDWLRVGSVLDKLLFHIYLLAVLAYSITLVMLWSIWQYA
# [13] = test system: Cricetinae; details: 3 uM
# Description: Inhibition of hamster potassium channel at 3 uM by radioligand binding assay
# [14] = biological target: D(2) dopamine receptor (Homo sapiens) (UniProt P14416); test: Inhibition of human dopamine D2S receptor at 3 uM by radioligand binding assay
# Chain of D(2) dopamine receptor (Homo sapiens) (P14416 whole entry): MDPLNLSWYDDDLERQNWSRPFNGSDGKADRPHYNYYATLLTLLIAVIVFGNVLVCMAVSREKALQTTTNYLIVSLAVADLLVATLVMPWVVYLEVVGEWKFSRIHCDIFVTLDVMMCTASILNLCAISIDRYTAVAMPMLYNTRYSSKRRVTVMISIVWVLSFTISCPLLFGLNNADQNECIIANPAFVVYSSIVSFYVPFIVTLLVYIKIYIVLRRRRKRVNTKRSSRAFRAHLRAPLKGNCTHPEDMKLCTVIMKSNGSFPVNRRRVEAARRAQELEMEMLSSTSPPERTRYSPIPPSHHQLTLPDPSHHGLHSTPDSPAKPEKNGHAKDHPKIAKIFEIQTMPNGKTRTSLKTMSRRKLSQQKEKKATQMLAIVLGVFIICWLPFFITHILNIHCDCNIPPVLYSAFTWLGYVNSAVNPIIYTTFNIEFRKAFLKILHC
# [15] = biological target: Substance-P receptor (Homo sapiens) (UniProt P25103); test: Inhibition of human NK1 receptor at 3 uM by radioligand binding assay
# Chain of Substance-P receptor (Homo sapiens) (P25103 whole entry): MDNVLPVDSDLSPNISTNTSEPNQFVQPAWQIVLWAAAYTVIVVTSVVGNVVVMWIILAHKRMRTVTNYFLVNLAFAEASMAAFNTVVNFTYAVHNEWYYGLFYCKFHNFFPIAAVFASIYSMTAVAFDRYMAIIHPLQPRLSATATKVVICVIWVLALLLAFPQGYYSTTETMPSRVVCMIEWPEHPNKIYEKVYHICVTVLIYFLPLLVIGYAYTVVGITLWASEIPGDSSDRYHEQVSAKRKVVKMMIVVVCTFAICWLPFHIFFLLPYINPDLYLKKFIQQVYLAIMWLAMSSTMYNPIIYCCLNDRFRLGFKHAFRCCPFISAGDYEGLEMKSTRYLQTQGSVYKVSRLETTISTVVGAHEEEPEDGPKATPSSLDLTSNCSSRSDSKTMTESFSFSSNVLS
# [16] = biological target: Neuropeptide Y receptor type 1 (Homo sapiens) (UniProt P25929); test: Inhibition of human neuropeptide YY1 receptor at 3 uM by radioligand binding assay
# Chain of Neuropeptide Y receptor type 1 (Homo sapiens) (P25929 whole entry): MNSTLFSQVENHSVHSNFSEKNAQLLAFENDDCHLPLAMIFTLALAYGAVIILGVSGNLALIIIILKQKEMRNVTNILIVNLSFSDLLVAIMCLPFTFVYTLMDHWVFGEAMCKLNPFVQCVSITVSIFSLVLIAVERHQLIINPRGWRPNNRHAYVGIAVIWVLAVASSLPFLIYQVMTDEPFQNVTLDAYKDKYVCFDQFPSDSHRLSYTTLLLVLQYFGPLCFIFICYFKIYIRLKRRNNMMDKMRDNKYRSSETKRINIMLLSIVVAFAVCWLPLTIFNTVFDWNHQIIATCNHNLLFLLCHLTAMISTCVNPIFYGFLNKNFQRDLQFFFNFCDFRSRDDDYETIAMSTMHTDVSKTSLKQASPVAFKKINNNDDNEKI
# [17] = species: Homo sapiens; test: Inhibition of human nicotinic acetylcholine receptor at 3 uM by radioligand binding assay
# [18] = biological target: Delta-type opioid receptor (Homo sapiens) (UniProt P41143); test: Inhibition of human delta opioid receptor at 3 uM by radioligand binding assay
# Chain of Delta-type opioid receptor (Homo sapiens) (P41143 whole entry): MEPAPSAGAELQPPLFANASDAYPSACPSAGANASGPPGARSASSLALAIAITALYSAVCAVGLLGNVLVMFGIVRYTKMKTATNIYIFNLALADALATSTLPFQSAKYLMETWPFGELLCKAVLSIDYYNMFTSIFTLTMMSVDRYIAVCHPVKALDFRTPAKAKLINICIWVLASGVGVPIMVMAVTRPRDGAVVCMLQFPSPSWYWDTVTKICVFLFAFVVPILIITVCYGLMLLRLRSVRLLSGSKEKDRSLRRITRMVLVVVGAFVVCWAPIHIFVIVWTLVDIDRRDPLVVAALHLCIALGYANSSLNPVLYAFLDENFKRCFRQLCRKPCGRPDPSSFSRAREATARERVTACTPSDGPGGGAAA
smiles,measurement,setting,value
CCOC(=O)N1CCC(CN2CCC3(CC2)CN(C(=O)N(C)C)c2ncccc23)CC1.O=C(O)/C=C/C(=O)O,inhibition,[1],16%
same,inhibition,[2],5%
same,inhibition,[3],57%
same,Activity,[4],2%
same,clearance,[5],16.5 mL/min/kg
same,Intrinsic activity,[6],11%
same,inhibition,[7],10%
same,inhibition,[8],0%
same,inhibition,[9],21%
same,Intrinsic activity,[10],2%
same,logP,[11],1.3
same,inhibition,[12],-10%
same,inhibition,[13],6%
same,inhibition,[14],2%
same,inhibition,[15],2%
same,inhibition,[16],-2%
same,inhibition,[17],9%
same,inhibition,[18],-1%
